Measurements published in patent publication US4316958A, “Process for producing optically active cephalosporin analogs” (Kyowa Hakko Kogyo Co., Ltd., priority 1979, dated 1982).
≈ marks a conversion by molar mass, not a printed value. Where two headings read alike, the source gives them in different places.

How the values were obtained:
Type in all cases: cell-based
[1] = tested on: Escherichia coli GN2411-5; assay: Heart Infusion Agar Dilution Method, antimicrobial activity (MIC)
Description: (§1) Antimicrobial activities of the compounds obtained in Reference Examples 1 and 2 are as follows. Heart Infusion Agar Dilution Method (pH 7.2) is used. A cephalosporin compound having the same acyl side chain corresponding to the dl-compound is used as a control. The compounds are identified as follows.

[2] = tested on: Escherichia coli Juhl; assay: as above
Description: as §1

[3] = tested on: Escherichia coli NIHJC-2; assay: as above
Description: as §1

[4] = tested on: Klebsiella pneumoniae 8045; assay: as above; conditions: Klebsiella pneumoniae, 8045, pH 7.2, Klebsiella pneumoniae 8045
Description: as §1

[5] = tested on: Klebsiella pneumoniae Y-60; assay: as above
Description: as §1

[6] = tested on: Proteus mirabilis 1287; assay: as above; conditions: Proteus mirabilis, 1287, pH 7.2, Proteus mirabilis 1287
Description: as §1

[7] = tested on: Proteus morganii KY 4298; assay: as above
Description: as §1

[8] = tested on: Proteus rettgeri KY 4289; assay: as above; conditions: Providencia rettgeri, KY4289, pH 7.2
Description: as §1

[9] = tested on: Proteus vulgaris 6897; assay: as above; conditions: Proteus vulgaris, 6897, pH 7.2, Proteus vulgaris 6897
Description: as §1

[10] = tested on: Pseudomonas aeruginosa #1; assay: as above
Description: as §1

[11] = tested on: Serratia marcescens T-26; assay: as above
Description: as §1

[12] = tested on: Serratia marcescens T-55; assay: as above
Description: as §1

[13] = tested on: Staphylococcus aureus 209-P; assay: as above
Description: as §1

[14] = tested on: Staphylococcus aureus Smith; assay: as above
Description: (§2) Heart Infusion Agar Dilution Method (pH 7.2) is used. A cephalosporin compound having the same acyl side chain corresponding to the dl-compound is used as a control. The compounds are identified as follows.

[15] = antimicrobial activity (stated in words)
Description: as §1

[16] = tested on: Pseudomonas aeruginosa 145; assay: Heart Infusion Agar Dilution Method, antimicrobial activity (MIC); conditions: Pseudomonas aeruginosa, 145, pH 7.2, Pseudomonas aeruginosa 145
Description: as §1

[17] = tested on: Pseudomonas putida 264; assay: as above
Description: as §1

[18] = tested on: Staphylococcus epidermidis; assay: as above; conditions: pH 7.2
Description: as §2

[19] = Morganella morganii, KY4298, pH 7.2, Proteus morganii KY 4298, read-out: MIC
[20] = Serratia marcescens T-55, pH 7.2
[21] = Staphylococcus aureus 209-P, pH 7.2
[22] = Escherichia coli, GN2411, pH 7.2, Escherichia coli GN2411-5, read-out: MIC
[23] = Escherichia coli, pH 7.2, Escherichia coli Juhl, read-out: MIC
[24] = Escherichia coli, NIHJC2, pH 7.2, Escherichia coli NIHJC-2, read-out: MIC
[25] = Klebsiella pneumoniae, Y60, pH 7.2, Klebsiella pneumoniae Y-60, read-out: MIC
[26] = Pseudomonas aeruginosa, pH 7.2, Pseudomonas aeruginosa #1, read-out: MIC
[27] = Serratia marcescens, T26, pH 7.2, Serratia marcescens T-26, read-out: MIC

**Q.** With CO/N=C(\C(=O)N[C@@H]1C(=O)N2C(C(=O)O)=CCC[C@H]12)c1csc(N)n1 [A, (+)-cis-7-[2-(2-amino-4-thiazolyl)-2-syn-methoxyiminoacetamido]-1-azabicyclo[4,2,0]oct-2-en-8-on-2-carboxylic acid] as the molecule, how does the MIC ([1]; Escherichia coli GN2411-5, pH 7.2) read?
**A.** 0.01 µg/mL (≈ 0.0274 µM)

**Q.** What about the MIC ([2]; Escherichia coli Juhl, pH 7.2) of the same molecule?
**A.** 0.02 µg/mL (≈ 0.0547 µM)

**Q.** And the MIC ([3]; Escherichia coli NIHJC-2, pH 7.2)?
**A.** 0.02 µg/mL (≈ 0.0547 µM)

**Q.** And the MIC [4]?
**A.** ≤ 0.006 µg/mL

**Q.** And the MIC ([5]; Klebsiella pneumoniae Y-60, pH 7.2)?
**A.** 0.02 µg/mL (≈ 0.0547 µM)

**Q.** What about the MIC [6] of the same molecule?
**A.** 0.01 µg/mL (≈ 0.0274 µM)

**Q.** What about the MIC [7, 19] of the same molecule?
**A.** 0.05 µg/mL (≈ 0.137 µM)

**Q.** And the MIC [8]?
**A.** ≤ 0.006 µg/mL

**Q.** And the MIC [9]?
**A.** ≤ 0.006 µg/mL

**Q.** And the MIC ([10]; Pseudomonas aeruginosa #1, pH 7.2)?
**A.** 6.25 µg/mL (≈ 17.1 µM)

**Q.** What about the MIC ([11]; Serratia marcescens T-26, pH 7.2) of the same molecule?
**A.** 0.2 µg/mL (≈ 0.547 µM)

**Q.** What about the MIC [12, 20] of the same molecule?
**A.** 0.02 µg/mL (≈ 0.0547 µM)

**Q.** And the MIC [13, 21]?
**A.** 3.12 µg/mL (≈ 8.54 µM)

**Q.** And the MIC ([14]; Staphylococcus aureus Smith, pH 7.2)?
**A.** 6.25 µg/mL (≈ 17.1 µM)

**Q.** What about the antimicrobial activity [15] of the same molecule?
**A.** strong antimicrobial activity

**Q.** Which MIC [1, 22] does the source give for CO/N=C(\C(=O)N[C@@H]1C(=O)N2C(C(=O)O)=C[C@@H](C)C[C@H]12)c1csc(N)n1 [B, (-)-cis-7β-[2-(2-amino-4-thiazolyl)-2-syn-methoxyiminoacetamido]-4α-methyl-1-azabicyclo[4,2,0]oct-2-en-8-on-2-carboxylic acid] here?
**A.** ≤ 0.01 µg/mL

**Q.** And the MIC [2, 23]?
**A.** 0.02 µg/mL (≈ 0.0527 µM)

**Q.** And the MIC [3, 24]?
**A.** 0.02 µg/mL (≈ 0.0527 µM)

**Q.** What about the MIC [4] of the same molecule?
**A.** ≤ 0.01 µg/mL

**Q.** And the MIC [5, 25]?
**A.** 0.02 µg/mL (≈ 0.0527 µM)

**Q.** What about the MIC [6] of the same molecule?
**A.** ≤ 0.01 µg/mL

**Q.** And the MIC ([7]; Proteus morganii KY 4298, pH 7.2)?
**A.** 0.02 µg/mL (≈ 0.0527 µM)

**Q.** And the MIC [8]?
**A.** ≤ 0.01 µg/mL

**Q.** And the MIC [9]?
**A.** ≤ 0.01 µg/mL

**Q.** And the MIC [10, 26]?
**A.** 25 µg/mL (≈ 65.9 µM)

**Q.** What about the MIC [16] of the same molecule?
**A.** 100 µg/mL (≈ 264 µM)

**Q.** And the MIC ([17]; Pseudomonas putida 264, pH 7.2)?
**A.** 0.05 µg/mL (≈ 0.132 µM)

**Q.** And the MIC [11, 27]?
**A.** 0.4 µg/mL (≈ 1.05 µM)

**Q.** What about the MIC [12, 20] of the same molecule?
**A.** 0.05 µg/mL (≈ 0.132 µM)

**Q.** And the MIC [13, 21]?
**A.** 1.56 µg/mL (≈ 4.11 µM)

**Q.** What about the MIC ([14]; Staphylococcus aureus, pH 7.2, Staphylococcus aureus Smith, read-out: MIC) of the same molecule?
**A.** 6.25 µg/mL (≈ 16.5 µM)

**Q.** What about the antimicrobial activity [15] of the same molecule?
**A.** strong antimicrobial activity

**Q.** For CO/N=C(\C(=O)N[C@@H]1C(=O)N2C(C(=O)O)=C(COC(C)=O)CS[C@H]12)c1csc(N)n1 [C, reference compound], which MIC [1, 22] is on record?
**A.** 0.05 µg/mL (≈ 0.11 µM)

**Q.** What about the MIC [2, 23] of the same molecule?
**A.** 0.05 µg/mL (≈ 0.11 µM)

**Q.** What about the MIC [3, 24] of the same molecule?
**A.** 0.1 µg/mL (≈ 0.22 µM)

**Q.** What about the MIC [4] of the same molecule?
**A.** ≤ 0.01 µg/mL

**Q.** And the MIC [5, 25]?
**A.** 0.05 µg/mL (≈ 0.11 µM)

**Q.** And the MIC [6]?
**A.** 0.02 µg/mL (≈ 0.0439 µM)

**Q.** And the MIC [7, 19]?
**A.** 0.05 µg/mL (≈ 0.11 µM)

**Q.** What about the MIC [8] of the same molecule?
**A.** ≤ 0.01 µg/mL

**Q.** And the MIC [9]?
**A.** ≤ 0.01 µg/mL

**Q.** What about the MIC [10, 26] of the same molecule?
**A.** 6.25 µg/mL (≈ 13.7 µM)

**Q.** What about the MIC [16] of the same molecule?
**A.** 50 µg/mL (≈ 110 µM)

**Q.** And the MIC ([17]; Pseudomonas putida, 264, pH 7.2, Pseudomonas putida 264, read-out: MIC)?
**A.** 0.1 µg/mL (≈ 0.22 µM)

**Q.** What about the MIC [11, 27] of the same molecule?
**A.** 0.78 µg/mL (≈ 1.71 µM)

**Q.** And the MIC ([12]; Serratia marcescens, T55, pH 7.2, Serratia marcescens T-55, read-out: MIC)?
**A.** 0.1 µg/mL (≈ 0.22 µM)

**Q.** And the MIC ([13]; Staphylococcus aureus, 209P, pH 7.2, Staphylococcus aureus 209-P, read-out: MIC)?
**A.** 0.78 µg/mL (≈ 1.71 µM)

**Q.** What about the MIC ([14]; Staphylococcus aureus Smith, pH 7.2, read-out: MIC) of the same molecule?
**A.** 1.56 µg/mL (≈ 3.43 µM)

**Q.** And the MIC [18]?
**A.** 1.56 µg/mL (≈ 3.43 µM)
